The record followed here is article PMC11289455 (Scientific Reports, 2024).

The target in series [1] is T1, A2A (adenosine 2A receptor) (Homo sapiens, UniProt P29274).
T1 construct: purchased Eurofins Cerep SafetyScreen44
Nature of the series: SafetyScreen44: A2A. It is filed as binding.

For series [2], the target named is T2, ETA (endothelin receptor subtype A) (Homo sapiens, UniProt P25101).
T2 construct: purchased Eurofins Cerep SafetyScreen44
T2 sequence (P25101 21-427): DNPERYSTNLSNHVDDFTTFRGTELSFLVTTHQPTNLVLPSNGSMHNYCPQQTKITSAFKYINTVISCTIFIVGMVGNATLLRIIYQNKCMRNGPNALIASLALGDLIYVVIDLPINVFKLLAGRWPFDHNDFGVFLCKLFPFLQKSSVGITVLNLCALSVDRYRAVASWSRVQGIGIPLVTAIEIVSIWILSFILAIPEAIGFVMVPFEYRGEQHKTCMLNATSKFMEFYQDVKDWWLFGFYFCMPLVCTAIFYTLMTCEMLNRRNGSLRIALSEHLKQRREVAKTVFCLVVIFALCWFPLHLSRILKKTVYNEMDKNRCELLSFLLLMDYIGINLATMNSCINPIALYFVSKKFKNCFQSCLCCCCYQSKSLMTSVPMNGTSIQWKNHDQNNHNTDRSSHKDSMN
Briefly: SafetyScreen44: ETA. It is filed as binding.

Series [3] concerns the target T3, H2 (histamine H2 receptor) (Homo sapiens, UniProt P25021).
T3 construct: purchased Eurofins Cerep SafetyScreen44
Briefly: SafetyScreen44: H2. It is filed as binding.

The target in series [4] is T4, M2 (muscarinic acetylcholine receptor M2) (Homo sapiens, UniProt P08172).
T4 construct: purchased Eurofins Cerep SafetyScreen44
T4 sequence (P08172 1-466): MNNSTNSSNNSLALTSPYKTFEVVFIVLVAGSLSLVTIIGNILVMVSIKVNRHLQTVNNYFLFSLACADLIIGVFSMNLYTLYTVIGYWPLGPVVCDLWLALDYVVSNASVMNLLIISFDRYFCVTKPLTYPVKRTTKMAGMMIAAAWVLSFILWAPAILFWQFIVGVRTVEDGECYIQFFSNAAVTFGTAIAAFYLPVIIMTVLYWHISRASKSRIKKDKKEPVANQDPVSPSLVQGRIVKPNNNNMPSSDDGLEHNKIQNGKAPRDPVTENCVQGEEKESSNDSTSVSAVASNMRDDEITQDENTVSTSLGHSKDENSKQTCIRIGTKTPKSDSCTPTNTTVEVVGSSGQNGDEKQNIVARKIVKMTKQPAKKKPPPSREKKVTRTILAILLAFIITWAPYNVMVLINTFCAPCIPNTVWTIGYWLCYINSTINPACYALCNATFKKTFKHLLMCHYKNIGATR
Nature of the series: SafetyScreen44: M2. It counts as binding.

Series [5] addresses T5, 5-HT1A (serotonin 1A receptor) (Homo sapiens, UniProt P08908).
T5 construct: purchased Eurofins Cerep SafetyScreen44
T5 sequence (P08908 1-422): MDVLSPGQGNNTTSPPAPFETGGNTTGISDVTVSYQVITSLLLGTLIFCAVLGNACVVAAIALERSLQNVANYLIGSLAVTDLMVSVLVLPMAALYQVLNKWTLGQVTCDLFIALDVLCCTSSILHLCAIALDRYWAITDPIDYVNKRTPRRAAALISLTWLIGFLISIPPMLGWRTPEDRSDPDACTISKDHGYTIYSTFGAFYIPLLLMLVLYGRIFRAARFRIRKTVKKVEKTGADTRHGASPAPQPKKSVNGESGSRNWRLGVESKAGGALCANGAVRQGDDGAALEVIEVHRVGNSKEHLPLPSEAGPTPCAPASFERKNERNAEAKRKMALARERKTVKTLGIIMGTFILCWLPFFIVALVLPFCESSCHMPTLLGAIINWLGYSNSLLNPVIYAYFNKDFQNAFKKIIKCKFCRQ
Nature of the series: SafetyScreen44: 5-HT1A. It counts as binding.

Series [6] addresses T6, 5-HT1B (serotonin 1B receptor) (Rattus norvegicus, UniProt P28564).
T6 construct: purchased Eurofins Cerep SafetyScreen44
Briefly: SafetyScreen44: 5-HT1B. It is filed as binding.

Series [7] in a line: Plasma concentration in rat pharmacokinetic-pharmacodynamic model. It counts as in vivo.
Series [8] in a line: Nonclinical tissue distribution in monkeys. It is filed as in vivo, monkey. The settings on record: variety of tissues (e.g. colon, ileum, and skin), nonclinical data.

Read-outs that look alike come from different tables or passages of the source.

T6 sequence (P28564 whole entry): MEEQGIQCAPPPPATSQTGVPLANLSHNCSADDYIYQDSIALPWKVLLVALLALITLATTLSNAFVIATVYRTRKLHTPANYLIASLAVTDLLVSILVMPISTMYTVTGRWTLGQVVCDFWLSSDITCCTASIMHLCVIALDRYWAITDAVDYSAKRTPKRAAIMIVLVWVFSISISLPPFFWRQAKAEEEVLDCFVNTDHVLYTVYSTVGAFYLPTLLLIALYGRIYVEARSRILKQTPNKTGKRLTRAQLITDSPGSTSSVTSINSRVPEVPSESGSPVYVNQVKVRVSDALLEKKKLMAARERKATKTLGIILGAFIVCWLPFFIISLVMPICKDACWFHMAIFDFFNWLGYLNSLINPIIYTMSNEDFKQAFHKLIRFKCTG
T1 sequence (P29274 whole entry): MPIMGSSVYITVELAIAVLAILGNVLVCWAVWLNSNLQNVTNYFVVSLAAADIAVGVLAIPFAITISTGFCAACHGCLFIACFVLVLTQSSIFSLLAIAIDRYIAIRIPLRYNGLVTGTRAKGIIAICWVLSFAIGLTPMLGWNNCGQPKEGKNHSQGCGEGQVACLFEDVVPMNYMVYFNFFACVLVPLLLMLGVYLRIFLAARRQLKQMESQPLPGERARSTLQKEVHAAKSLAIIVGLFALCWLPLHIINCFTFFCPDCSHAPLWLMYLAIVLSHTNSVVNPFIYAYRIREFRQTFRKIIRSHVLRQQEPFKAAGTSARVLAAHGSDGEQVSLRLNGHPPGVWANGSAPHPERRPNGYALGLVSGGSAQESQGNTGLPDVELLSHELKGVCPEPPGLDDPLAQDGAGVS
T3 sequence (P25021 whole entry): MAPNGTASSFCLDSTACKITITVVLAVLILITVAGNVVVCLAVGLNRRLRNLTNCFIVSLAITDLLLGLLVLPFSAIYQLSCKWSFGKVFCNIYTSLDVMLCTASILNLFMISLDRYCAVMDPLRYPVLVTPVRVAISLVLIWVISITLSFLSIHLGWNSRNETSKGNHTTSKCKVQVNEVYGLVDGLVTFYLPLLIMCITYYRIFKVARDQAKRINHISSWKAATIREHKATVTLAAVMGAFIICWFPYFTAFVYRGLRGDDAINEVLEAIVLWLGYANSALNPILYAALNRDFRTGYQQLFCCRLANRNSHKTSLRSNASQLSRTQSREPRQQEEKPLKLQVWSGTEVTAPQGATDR

One may read the inhibition as the change of the read-out against control, counted positive when it falls. `CC(=O)NCCCC[C@@H]1NC(=O)[C@H](Cc2c[nH]c3c(C)cccc23)NC(=O)[C@H]([C@@H](C)O)NC(=O)[C@H](CC(N)=O)NC(=O)[C@@H](NC(C)=O)C(C)(C)SSC(C)(C)[C@@H](C(=O)N[C@@H](Cc2ccc(OCCN)cc2)C(=O)N[C@@H](Cc2ccc3ccccc3c2)C(=O)NC2(C(=O)N[C@@H](CCC(=O)O)C(=O)N[C@@H](CC(N)=O)C(=O)N[C@@H](Cc3cccnc3)C(=O)N(C)CC(N)=O)CCOCC2)NC1=O` [JNJ-77242113, S^3,1,S^3,6-cyclo[N-acetyl-3-sulfanyl-L-valyl-L-asparaginyl-L-threonyl-7-methyl-L-tryptophyl-N^6-acetyl-L-lysyl-3-sulfanyl-L-valyl-O-(2-aminoethyl)-L-tyrosyl-3-(naphthalen-2-yl)-L-alanyl-4-aminooxan-4-carbonyl-L-α-glutamyl-L-asparaginyl-3-(pyridin-3-yl)-L-alanyl-N^2-methylglycinamide]]: the inhibition at 10 µM in series [1] (1st run, read-out: Percent inhibition of control ligand binding, A2A, 1st run) was -8.7%; in series [1] (2nd run, read-out: Percent inhibition of control ligand binding, A2A, 2nd run), -6.2%; in series [1] (mean of 2 runs, read-out: Percent inhibition of control ligand binding, A2A, Mean), -7.5%; in series [2] (1st run, read-out: Percent inhibition of control ligand binding, ETA, 1st run), -31.3%; in series [2] (2nd run, read-out: Percent inhibition of control ligand binding, ETA, 2nd run) it was -12.9%; in series [2] (mean of 2 runs, read-out: Percent inhibition of control ligand binding, ETA, Mean) it was -22.1%. The inhibition at 10 µM is -26.6% in series [3] (1st run, read-out: Percent inhibition of control ligand binding, H2, 1st run); -22% in series [3] (2nd run, read-out: Percent inhibition of control ligand binding, H2, 2nd run); -24.3% in series [3] (mean of 2 runs, read-out: Percent inhibition of control ligand binding, H2, Mean); 0.3% in series [4] (1st run, read-out: Percent inhibition of control ligand binding, M2, 1st run); 2% in series [4] (2nd run, read-out: Percent inhibition of control ligand binding, M2, 2nd run); 1.2% in series [4] (mean of 2 runs, read-out: Percent inhibition of control ligand binding, M2, Mean). The inhibition at 10 µM is -5.6% in series [5] (1st run, read-out: Percent inhibition of control ligand binding, 5-HT1A, 1st run); 2.8% in series [5] (2nd run, read-out: Percent inhibition of control ligand binding, 5-HT1A, 2nd run); -1.4% in series [5] (mean of 2 runs, read-out: Percent inhibition of control ligand binding, 5-HT1A, Mean); 0% in series [6] (1st run, read-out: Percent inhibition of control ligand binding, 5-HT1B, 1st run); -9.8% in series [6] (2nd run, read-out: Percent inhibition of control ligand binding, 5-HT1B, 2nd run); -4.9% in series [6] (mean of 2 runs, read-out: Percent inhibition of control ligand binding, 5-HT1B, Mean). Further, in series [7] (10 mg/kg oral, plasma LC–MS/MS, dilution adjusted), the “Mean dilution-adjusted exposure at 2 h (Tmax)” value came out at 660 pM. Further, in series [7] (in vivo oral doses less than 10 mg/kg), the “Exposures (in words)” value was “below the limit of quantification”. In addition, the “Tissue distribution (in words)” value in series [8] is “distributed freely”.
